From ChEMBL document CHEMBL4507264, “Data for DCP probe BAY-7598” (2021)

How the values were obtained:
[1] = molecular target: Mitogen-activated protein kinase 14 (Homo sapiens) (UniProt Q16539); conditions: Compound concentration 1000.0 nM
[2] = molecular target: SRSF protein kinase 3 (Homo sapiens) (UniProt Q9UPE1); conditions: Compound concentration 1000.0 nM
[3] = molecular target: Interleukin-1 receptor-associated kinase 4 (Homo sapiens) (UniProt Q9NWZ3); conditions: Compound concentration 1000.0 nM
[4] = molecular target: Cyclin-dependent kinase 2 (Homo sapiens) (UniProt P24941); conditions: Compound concentration 1000.0 nM
[5] = molecular target: Phosphatidylinositol 4-kinase beta (Homo sapiens) (UniProt Q9UBF8); conditions: Compound concentration 1000.0 nM
[6] = molecular target: Membrane-associated tyrosine- and threonine-specific cdc2-inhibitory kinase (Homo sapiens) (UniProt Q99640); conditions: Compound concentration 1000.0 nM
[7] = molecular target: Ribosomal protein S6 kinase alpha-1 (Homo sapiens) (UniProt Q15418); conditions: Compound concentration 1000.0 nM
[8] = test system: Tyrosine-protein kinase ABL1 (Homo sapiens), P00519 [F317I]; conditions: Compound concentration 1000.0 nM
[9] = test system: Epidermal growth factor receptor (Homo sapiens), P00533 [G719C]; conditions: Compound concentration 1000.0 nM
[10] = molecular target: cGMP-dependent protein kinase 1 (Homo sapiens) (UniProt Q13976); conditions: Compound concentration 1000.0 nM
Chain of cGMP-dependent protein kinase 1 (Homo sapiens) (Q13976 whole entry): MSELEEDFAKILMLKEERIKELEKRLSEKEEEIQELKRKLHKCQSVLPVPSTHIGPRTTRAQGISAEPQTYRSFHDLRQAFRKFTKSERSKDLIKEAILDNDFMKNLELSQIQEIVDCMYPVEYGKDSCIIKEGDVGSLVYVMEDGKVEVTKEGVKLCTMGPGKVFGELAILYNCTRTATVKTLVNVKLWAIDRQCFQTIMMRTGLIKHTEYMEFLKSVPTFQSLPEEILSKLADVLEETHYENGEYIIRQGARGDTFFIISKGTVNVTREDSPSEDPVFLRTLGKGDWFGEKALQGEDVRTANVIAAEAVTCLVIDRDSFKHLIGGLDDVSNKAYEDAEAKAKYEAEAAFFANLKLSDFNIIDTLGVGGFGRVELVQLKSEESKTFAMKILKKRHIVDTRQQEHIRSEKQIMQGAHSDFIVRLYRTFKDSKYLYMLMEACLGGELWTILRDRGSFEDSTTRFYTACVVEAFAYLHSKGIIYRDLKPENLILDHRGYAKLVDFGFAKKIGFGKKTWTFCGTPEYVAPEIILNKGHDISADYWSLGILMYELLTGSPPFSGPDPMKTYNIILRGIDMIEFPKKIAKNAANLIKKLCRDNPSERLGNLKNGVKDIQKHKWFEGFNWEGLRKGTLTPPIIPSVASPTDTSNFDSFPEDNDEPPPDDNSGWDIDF

[11] = molecular target: Serine/threonine-protein kinase BRSK1 (Homo sapiens) (UniProt Q8TDC3); conditions: Compound concentration 1000.0 nM
[12] = molecular target: Mitogen-activated protein kinase 13 (Homo sapiens) (UniProt O15264); conditions: Compound concentration 1000.0 nM
[13] = molecular target: Serine/threonine-protein kinase ULK2 (Homo sapiens) (UniProt Q8IYT8); conditions: Compound concentration 1000.0 nM
[14] = molecular target: Mitogen-activated protein kinase kinase kinase 20 (Homo sapiens) (UniProt Q9NYL2); conditions: Compound concentration 1000.0 nM
Chain of Mitogen-activated protein kinase kinase kinase 20 (Homo sapiens) (Q9NYL2 2-800 limits assumed): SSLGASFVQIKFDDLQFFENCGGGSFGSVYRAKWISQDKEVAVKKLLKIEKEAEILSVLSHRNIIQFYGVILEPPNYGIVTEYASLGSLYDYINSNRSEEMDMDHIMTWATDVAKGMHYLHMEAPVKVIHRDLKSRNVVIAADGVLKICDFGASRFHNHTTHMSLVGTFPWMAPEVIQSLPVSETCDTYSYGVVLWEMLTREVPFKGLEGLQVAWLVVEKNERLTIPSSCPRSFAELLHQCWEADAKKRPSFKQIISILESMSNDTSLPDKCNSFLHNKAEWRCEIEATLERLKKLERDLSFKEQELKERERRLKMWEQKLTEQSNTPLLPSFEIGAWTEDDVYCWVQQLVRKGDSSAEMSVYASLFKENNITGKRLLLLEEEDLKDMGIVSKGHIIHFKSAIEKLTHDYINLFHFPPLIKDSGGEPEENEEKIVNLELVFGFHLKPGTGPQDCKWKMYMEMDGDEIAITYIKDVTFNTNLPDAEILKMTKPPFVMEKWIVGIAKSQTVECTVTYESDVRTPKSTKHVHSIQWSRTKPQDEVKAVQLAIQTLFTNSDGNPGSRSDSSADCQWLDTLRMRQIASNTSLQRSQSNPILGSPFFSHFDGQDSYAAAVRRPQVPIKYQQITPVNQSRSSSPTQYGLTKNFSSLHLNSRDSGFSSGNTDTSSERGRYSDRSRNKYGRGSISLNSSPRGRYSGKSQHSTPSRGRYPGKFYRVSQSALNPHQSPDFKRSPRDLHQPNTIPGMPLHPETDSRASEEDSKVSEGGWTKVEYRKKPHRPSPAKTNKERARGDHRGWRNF

[15] = molecular target: Tyrosine-protein kinase ABL1 (Homo sapiens) (UniProt P00519); conditions: Compound concentration 1000.0 nM
[16] = molecular target: 5-hydroxytryptamine receptor 5A (Homo sapiens) (UniProt P47898); conditions: Compound concentration 10.0 uM
[17] = molecular target: Myosin light chain kinase 2, skeletal/cardiac muscle (Homo sapiens) (UniProt Q9H1R3); conditions: Compound concentration 1000.0 nM
[18] = molecular target: D(3) dopamine receptor (Homo sapiens) (UniProt P35462); conditions: Compound concentration 10.0 uM
[19] = molecular target: Cyclin-dependent kinase-like 1 (Homo sapiens) (UniProt Q00532); conditions: Compound concentration 1000.0 nM
[20] = molecular target: Serine/threonine-protein kinase DCLK2 (Homo sapiens) (UniProt Q8N568); conditions: Compound concentration 1000.0 nM
[21] = molecular target: Mitogen-activated protein kinase kinase kinase 6 (Homo sapiens) (UniProt O95382); conditions: Compound concentration 1000.0 nM
Chain of Mitogen-activated protein kinase kinase kinase 6 (Homo sapiens) (O95382 whole entry): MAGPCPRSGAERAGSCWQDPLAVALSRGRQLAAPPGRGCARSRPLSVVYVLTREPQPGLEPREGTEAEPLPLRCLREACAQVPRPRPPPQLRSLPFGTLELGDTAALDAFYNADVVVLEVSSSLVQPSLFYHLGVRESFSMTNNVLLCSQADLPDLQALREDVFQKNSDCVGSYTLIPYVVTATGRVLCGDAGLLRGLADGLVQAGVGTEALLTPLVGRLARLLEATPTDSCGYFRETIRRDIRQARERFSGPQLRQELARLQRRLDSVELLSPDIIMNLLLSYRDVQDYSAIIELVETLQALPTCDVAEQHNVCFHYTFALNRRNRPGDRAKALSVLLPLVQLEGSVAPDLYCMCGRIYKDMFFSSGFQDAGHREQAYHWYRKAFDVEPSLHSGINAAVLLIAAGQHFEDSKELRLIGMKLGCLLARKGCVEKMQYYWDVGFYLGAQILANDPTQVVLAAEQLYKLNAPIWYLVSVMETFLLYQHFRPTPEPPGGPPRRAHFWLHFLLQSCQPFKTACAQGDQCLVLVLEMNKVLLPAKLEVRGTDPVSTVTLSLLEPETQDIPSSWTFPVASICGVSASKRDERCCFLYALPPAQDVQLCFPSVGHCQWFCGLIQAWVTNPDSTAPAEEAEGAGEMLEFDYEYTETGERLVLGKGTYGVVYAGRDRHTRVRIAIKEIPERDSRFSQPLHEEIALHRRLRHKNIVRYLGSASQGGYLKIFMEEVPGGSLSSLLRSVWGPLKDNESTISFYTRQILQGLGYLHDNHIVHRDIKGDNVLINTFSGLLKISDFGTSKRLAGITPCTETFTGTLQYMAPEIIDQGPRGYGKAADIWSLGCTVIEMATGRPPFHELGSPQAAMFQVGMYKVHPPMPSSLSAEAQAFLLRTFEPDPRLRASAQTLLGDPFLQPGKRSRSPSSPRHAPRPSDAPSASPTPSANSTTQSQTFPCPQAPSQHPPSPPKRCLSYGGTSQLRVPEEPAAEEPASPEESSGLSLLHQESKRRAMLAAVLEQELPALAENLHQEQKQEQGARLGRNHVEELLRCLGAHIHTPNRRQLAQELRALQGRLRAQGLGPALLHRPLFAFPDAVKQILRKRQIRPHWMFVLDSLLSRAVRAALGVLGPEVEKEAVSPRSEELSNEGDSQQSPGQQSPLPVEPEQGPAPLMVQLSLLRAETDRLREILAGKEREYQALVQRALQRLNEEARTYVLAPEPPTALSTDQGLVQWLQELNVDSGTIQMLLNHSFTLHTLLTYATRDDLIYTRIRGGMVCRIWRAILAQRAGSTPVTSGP

[22] = molecular target: Dual specificity tyrosine-phosphorylation-regulated kinase 1A (Homo sapiens) (UniProt Q13627); conditions: Compound concentration 1000.0 nM
[23] = molecular target: Serine/threonine-protein kinase ICK (Homo sapiens) (UniProt Q9UPZ9); conditions: Compound concentration 1000.0 nM
Chain of Serine/threonine-protein kinase ICK (Homo sapiens) (Q9UPZ9 whole entry): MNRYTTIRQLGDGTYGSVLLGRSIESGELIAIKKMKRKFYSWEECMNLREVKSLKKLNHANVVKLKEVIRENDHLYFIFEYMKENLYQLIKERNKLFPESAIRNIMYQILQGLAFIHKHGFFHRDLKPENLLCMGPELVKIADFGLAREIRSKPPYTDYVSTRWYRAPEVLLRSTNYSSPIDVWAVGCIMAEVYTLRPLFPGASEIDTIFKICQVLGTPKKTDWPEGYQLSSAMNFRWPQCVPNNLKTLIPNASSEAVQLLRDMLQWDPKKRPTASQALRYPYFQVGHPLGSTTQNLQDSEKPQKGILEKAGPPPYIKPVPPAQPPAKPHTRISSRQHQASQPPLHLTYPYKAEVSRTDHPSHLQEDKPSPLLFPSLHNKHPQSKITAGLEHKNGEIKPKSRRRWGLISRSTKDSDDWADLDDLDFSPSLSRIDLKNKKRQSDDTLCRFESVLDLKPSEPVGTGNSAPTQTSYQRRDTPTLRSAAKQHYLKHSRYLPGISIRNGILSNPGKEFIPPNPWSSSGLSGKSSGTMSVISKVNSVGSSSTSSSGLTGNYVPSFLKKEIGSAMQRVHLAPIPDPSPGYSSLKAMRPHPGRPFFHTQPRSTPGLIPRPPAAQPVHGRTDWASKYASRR

[24] = molecular target: Inhibitor of nuclear factor kappa-B kinase subunit epsilon (Homo sapiens) (UniProt Q14164); conditions: Compound concentration 1000.0 nM
[25] = molecular target: Mitogen-activated protein kinase 10 (Homo sapiens) (UniProt P53779); conditions: Compound concentration 1000.0 nM
Chain of Mitogen-activated protein kinase 10 (Homo sapiens) (P53779 whole entry): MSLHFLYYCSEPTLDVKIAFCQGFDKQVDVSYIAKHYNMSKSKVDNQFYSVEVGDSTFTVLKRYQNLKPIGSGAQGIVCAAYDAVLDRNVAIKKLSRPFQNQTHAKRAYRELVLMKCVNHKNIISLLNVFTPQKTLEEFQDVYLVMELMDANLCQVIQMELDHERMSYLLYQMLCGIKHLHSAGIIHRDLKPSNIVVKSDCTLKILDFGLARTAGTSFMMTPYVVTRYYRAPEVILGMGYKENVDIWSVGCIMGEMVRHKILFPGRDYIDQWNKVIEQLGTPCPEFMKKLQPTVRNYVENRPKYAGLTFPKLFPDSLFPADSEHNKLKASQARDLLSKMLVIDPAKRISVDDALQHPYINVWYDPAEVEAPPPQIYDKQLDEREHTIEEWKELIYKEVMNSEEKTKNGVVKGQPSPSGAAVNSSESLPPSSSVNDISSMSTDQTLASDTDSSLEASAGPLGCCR

[26] = molecular target: Mitogen-activated protein kinase 3 (Homo sapiens) (UniProt P27361); conditions: Compound concentration 1000.0 nM
[27] = molecular target: Cyclin-dependent kinase 14 (Homo sapiens) (UniProt O94921); conditions: Compound concentration 1000.0 nM
[28] = molecular target: Serine/threonine-protein kinase PLK2 (Homo sapiens) (UniProt Q9NYY3); conditions: Compound concentration 1000.0 nM
[29] = molecular target: Serine/threonine-protein kinase ULK3 (Homo sapiens) (UniProt Q6PHR2); conditions: Compound concentration 1000.0 nM
[30] = molecular target: Mitogen-activated protein kinase kinase kinase 10 (Homo sapiens) (UniProt Q02779); conditions: Compound concentration 1000.0 nM
[31] = molecular target: 5-hydroxytryptamine receptor 2C (Homo sapiens) (UniProt P28335); conditions: Compound concentration 10.0 uM
[32] = molecular target: Protein-tyrosine kinase 6 (Homo sapiens) (UniProt Q13882); conditions: Compound concentration 1000.0 nM
Chain of Protein-tyrosine kinase 6 (Homo sapiens) (Q13882 whole entry, looked up, canonical isoform): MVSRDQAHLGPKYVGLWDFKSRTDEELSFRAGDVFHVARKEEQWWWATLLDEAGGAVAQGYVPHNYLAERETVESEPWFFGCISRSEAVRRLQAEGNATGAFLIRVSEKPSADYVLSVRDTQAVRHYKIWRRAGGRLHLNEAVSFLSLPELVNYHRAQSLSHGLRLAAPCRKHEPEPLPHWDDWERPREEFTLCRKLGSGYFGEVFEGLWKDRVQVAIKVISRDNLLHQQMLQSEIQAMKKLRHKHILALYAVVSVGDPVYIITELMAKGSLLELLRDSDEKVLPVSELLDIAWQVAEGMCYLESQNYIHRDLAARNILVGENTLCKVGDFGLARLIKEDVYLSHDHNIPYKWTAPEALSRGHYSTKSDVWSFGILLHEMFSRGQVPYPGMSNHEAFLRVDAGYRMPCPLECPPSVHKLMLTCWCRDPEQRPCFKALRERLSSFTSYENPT

[33] = molecular target: Phosphatidylinositol 4,5-bisphosphate 3-kinase catalytic subunit delta isoform (Homo sapiens) (UniProt O00329); conditions: Compound concentration 1000.0 nM
[34] = molecular target: Casein kinase II subunit alpha' (Homo sapiens) (UniProt P19784); conditions: Compound concentration 1000.0 nM
Chain of Casein kinase II subunit alpha' (Homo sapiens) (P19784 whole entry, looked up): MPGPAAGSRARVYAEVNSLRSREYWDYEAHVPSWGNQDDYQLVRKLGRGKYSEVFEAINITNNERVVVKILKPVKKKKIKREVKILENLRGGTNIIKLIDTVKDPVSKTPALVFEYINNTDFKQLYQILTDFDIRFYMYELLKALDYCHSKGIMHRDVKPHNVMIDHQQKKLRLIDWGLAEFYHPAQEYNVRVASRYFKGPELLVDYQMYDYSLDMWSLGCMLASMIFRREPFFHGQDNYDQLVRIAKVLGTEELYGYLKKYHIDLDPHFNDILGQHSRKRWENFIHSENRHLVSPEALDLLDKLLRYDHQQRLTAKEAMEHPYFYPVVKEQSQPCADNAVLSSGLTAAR

[35] = molecular target: Mitogen-activated protein kinase kinase kinase 19 (Homo sapiens) (UniProt Q56UN5); conditions: Compound concentration 1000.0 nM
[36] = test system: Receptor-type tyrosine-protein kinase FLT3 (Homo sapiens), P36888 [D835H]; conditions: Compound concentration 1000.0 nM
[37] = test system: Epidermal growth factor receptor (Homo sapiens), P00533 [L858R]; conditions: Compound concentration 1000.0 nM
[38] = molecular target: Serine/threonine-protein kinase pim-3 (Homo sapiens) (UniProt Q86V86); conditions: Compound concentration 1000.0 nM
[39] = test system: Tyrosine-protein kinase ABL1 (Homo sapiens), P00519 [E255K]; conditions: Compound concentration 1000.0 nM
[40] = molecular target: Hepatocyte growth factor receptor (Homo sapiens) (UniProt P08581); conditions: Compound concentration 1000.0 nM
[41] = molecular target: GABA-A receptor; anion channel (Rattus norvegicus) (UniProt O09028+P15431+P18506+P18508+P19969+P20236+P23574+P23576+P28471+P28473+P30191+P62813+P63079+P63138+Q91ZM7+Q9ES14); conditions: Compound concentration 10.0 uM
[42] = molecular target: Mitogen-activated protein kinase kinase kinase kinase 3 (Homo sapiens) (UniProt Q8IVH8); conditions: Compound concentration 1000.0 nM
[43] = molecular target: Sodium-dependent noradrenaline transporter (Homo sapiens) (UniProt P23975); conditions: Compound concentration 10.0 uM
[44] = test system: Epidermal growth factor receptor (Homo sapiens), P00533 [UNDEFINED MUTATION]; conditions: Compound concentration 1000.0 nM

O=C(O)[C@@H]1[C@@H](Cn2nnc3ccccc3c2=O)CC[C@H]1C(=O)c1ccc(OCCC2CCOCC2)cc1 [BAY-694]
residual activity [1]: 89% | residual activity [2]: 100% | residual activity [3]: 76% | residual activity [4]: 100% | residual activity [5]: 83% | residual activity [6]: 82% | residual activity [7]: 100% | residual activity [8]: 82% | residual activity [9]: 90% | residual activity [10]: 100% | residual activity [11]: 100% | residual activity [12]: 94% | residual activity [13]: 90% | residual activity [14]: 91% | residual activity [15]: 79% | inhibition [16]: 1.33% | residual activity [17]: 100% | inhibition [18]: -4.94% | residual activity [19]: 100% | residual activity [20]: 87% | residual activity [21]: 79% | residual activity [22]: 94% | residual activity [23]: 97% | residual activity [24]: 100% | residual activity [25]: 100% | residual activity [26]: 100% | residual activity [27]: 100% | residual activity [28]: 92% | residual activity [29]: 100% | residual activity [30]: 100% | inhibition [31]: 21% | residual activity [32]: 99% | residual activity [33]: 99% | residual activity [34]: 88% | residual activity [35]: 84% | residual activity [36]: 83% | residual activity [37]: 100% | residual activity [38]: 84% | residual activity [39]: 84% | residual activity [40]: 100% | inhibition [41]: 10.2% | residual activity [42]: 100% | inhibition [43]: -7.25% | residual activity [44]: 53%

O=C(O)[C@H]1[C@H](Cn2nnc3ccccc3c2=O)CC[C@@H]1C(=O)c1ccc(OCCC2CCOCC2)cc1 [BAY-7598]
residual activity [1]: 85% | residual activity [2]: 84% | residual activity [3]: 76% | residual activity [4]: 100% | residual activity [5]: 93% | residual activity [6]: 96% | residual activity [7]: 90% | residual activity [8]: 86% | residual activity [9]: 81% | residual activity [10]: 75% | residual activity [11]: 78% | residual activity [12]: 97% | residual activity [13]: 100% | residual activity [14]: 100% | residual activity [15]: 89% | inhibition [16]: 6.91% | residual activity [17]: 83% | inhibition [18]: 7.27% | residual activity [19]: 99% | residual activity [20]: 79% | residual activity [21]: 91% | residual activity [22]: 85% | residual activity [23]: 98% | residual activity [24]: 90% | residual activity [25]: 83% | residual activity [26]: 94% | residual activity [27]: 100% | residual activity [28]: 100% | residual activity [29]: 85% | residual activity [30]: 82% | inhibition [31]: 22.4% | residual activity [32]: 100% | residual activity [33]: 89% | residual activity [34]: 79% | residual activity [35]: 78% | residual activity [36]: 72% | residual activity [37]: 95% | residual activity [38]: 86% | residual activity [39]: 75% | residual activity [40]: 94% | inhibition [41]: 7.4% | residual activity [42]: 100% | inhibition [43]: -0.42% | residual activity [44]: 40%
